Measured values as given in US20100003250A1, “(2-ARYL-7H-PYRROLO[2,3-D]PYRIMIDIN-4-YL)MORPHOLINE COMPOUNDS, THEIR USE AS MTOR KINASE AND PI3 KINASE INHIBITORS, AND THEIR SYNTHESES” (Wyeth, priority 2008, published 2010).

Columns and labels:
Format in all cases: biochemical
PI3Kα = PI3Kα (Homo sapiens, UniProt P42336); assay: PI3K-alpha fluorescence polarization assay; conditions: 20 μM PIP2, 25 μM ATP; read-out: PI3Kα Median IC50
PI3Kγ = PI3Kγ (Homo sapiens, UniProt P48736); assay: PI3K-gamma fluorescence polarization assay; conditions: 20 μM PIP2, 25 μM ATP; read-out: PI3Kγ Median IC50
Description: PI3K-alpha and PI3K-gamma Fluorescence Polarization Assay Protocols
The reaction buffer was 20 mM HEPES pH 7.5, 2 mM MgCl2, 0.05% CHAPS, and 0.01% βME (added fresh). The substrate solution was 40 μM PIP2 (diC8, Echelon, Salt Lake City Utah cat # P-4508, 1 mM in water) and 50 μM ATP in the reaction buffer. Nunc 384-well black polypropylene fluorescent plates were used for PI3K assays. The assay is run by putting 9.5 μl of freshly diluted enzyme in the reaction buffer per well, adding 0.5 μl of diluted drug or DMSO, and mixing. Then 10 μl of the substrate solution is added to each well to start the reaction. A final concentration of 20 μM PIP2 and 25 μM ATP in the reaction was used. Reactions were allowed to proceed for 30-60 minutes at room temperature. After 30-60 minutes, 20 μl of a solution of 10 nM TAMRA detector (Red detector probe-Echelon) and 2.5 μM of GST-murineGRP (1.5 mg/ml in 17% glycerol) was added per well to stop the reaction. The resulting solution was mixed well and allowed to stand for 90-110 minutes before reading plate. Assay Plates were read on Perkin-Elmer Envision plate readers with appropriate filters for Tamra [BODIPY-TMRI(1,3,4,5)P4]. Data obtained were used to calculate enzymatic activity and enzyme inhibition by inhibitor compounds. It is important to keep Red probe solutions dark. This procedure is adapted from Echelon Biosciences Inc procedure for their PI3-Kinase fluorescence polarization activity Assay kit Product number K-1100.

mTOR Kinase (FLAG-TOR) = target: T1, mTOR Kinase (FLAG-TOR) (Homo sapiens, UniProt P42345); assay: mTOR kinase assay, purified enzyme, DELFIA format; conditions: 100 μM ATP, 1.25 μM His6-S6K; read-out: mTOR Kinase Median IC50
T1 construct: FLAG

Chain of PI3Kγ (P48736 whole entry, species assumed): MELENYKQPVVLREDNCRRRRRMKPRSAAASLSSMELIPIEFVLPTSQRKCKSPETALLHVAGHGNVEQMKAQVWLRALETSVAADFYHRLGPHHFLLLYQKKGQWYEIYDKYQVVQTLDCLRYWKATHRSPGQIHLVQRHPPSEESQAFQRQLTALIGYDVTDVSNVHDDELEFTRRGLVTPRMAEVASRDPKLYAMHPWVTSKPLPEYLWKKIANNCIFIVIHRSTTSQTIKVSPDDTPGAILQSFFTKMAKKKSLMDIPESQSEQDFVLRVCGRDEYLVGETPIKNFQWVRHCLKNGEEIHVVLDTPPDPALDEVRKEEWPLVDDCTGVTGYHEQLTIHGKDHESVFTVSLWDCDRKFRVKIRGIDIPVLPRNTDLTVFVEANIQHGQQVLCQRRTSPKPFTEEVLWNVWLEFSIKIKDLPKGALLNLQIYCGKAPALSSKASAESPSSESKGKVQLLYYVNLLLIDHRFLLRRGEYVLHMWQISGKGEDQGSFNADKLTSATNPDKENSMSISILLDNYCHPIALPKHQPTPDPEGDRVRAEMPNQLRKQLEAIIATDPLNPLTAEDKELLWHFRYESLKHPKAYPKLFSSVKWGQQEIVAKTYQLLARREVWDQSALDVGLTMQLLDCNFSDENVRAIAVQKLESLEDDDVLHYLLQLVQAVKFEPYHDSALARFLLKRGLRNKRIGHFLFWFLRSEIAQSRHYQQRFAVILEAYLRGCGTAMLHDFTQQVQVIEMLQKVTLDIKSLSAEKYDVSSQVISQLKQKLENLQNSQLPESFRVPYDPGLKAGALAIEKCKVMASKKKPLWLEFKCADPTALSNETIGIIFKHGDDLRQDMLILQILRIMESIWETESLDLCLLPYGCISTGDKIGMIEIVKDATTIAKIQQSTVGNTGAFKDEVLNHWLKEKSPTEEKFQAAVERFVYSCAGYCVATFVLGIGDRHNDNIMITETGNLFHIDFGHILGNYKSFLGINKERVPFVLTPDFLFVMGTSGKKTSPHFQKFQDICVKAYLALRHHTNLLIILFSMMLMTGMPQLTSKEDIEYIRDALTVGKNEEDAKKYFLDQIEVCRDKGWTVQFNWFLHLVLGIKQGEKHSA
Chain of PI3Kα (P42336 whole entry, species assumed): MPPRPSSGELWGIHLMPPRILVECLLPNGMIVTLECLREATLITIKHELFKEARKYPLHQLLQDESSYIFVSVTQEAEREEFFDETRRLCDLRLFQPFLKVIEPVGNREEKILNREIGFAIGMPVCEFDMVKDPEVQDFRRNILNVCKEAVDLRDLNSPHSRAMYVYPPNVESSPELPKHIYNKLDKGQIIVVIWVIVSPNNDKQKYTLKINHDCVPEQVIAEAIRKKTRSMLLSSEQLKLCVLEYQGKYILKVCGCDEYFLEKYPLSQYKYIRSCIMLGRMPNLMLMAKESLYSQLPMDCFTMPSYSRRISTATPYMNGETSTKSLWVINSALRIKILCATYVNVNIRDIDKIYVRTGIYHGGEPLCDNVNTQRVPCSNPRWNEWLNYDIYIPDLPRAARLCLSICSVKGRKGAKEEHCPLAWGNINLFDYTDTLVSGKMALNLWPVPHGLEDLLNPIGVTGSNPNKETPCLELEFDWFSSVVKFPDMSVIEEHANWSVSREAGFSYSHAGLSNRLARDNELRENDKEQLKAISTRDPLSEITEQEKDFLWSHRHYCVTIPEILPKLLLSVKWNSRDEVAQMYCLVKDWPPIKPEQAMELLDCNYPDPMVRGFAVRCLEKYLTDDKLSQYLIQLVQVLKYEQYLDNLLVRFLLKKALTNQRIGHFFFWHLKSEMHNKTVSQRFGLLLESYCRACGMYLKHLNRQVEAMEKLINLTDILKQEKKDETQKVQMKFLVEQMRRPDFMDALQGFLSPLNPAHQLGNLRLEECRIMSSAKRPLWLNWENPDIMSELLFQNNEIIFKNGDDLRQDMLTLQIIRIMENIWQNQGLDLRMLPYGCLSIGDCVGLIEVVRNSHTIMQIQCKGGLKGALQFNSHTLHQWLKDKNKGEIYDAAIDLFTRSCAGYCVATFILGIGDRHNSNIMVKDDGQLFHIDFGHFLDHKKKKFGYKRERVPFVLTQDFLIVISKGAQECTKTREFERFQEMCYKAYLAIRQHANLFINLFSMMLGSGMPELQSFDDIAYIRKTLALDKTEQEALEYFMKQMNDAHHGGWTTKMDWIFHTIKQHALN
Chain of PI3Kα (P27986 whole entry partner, species assumed): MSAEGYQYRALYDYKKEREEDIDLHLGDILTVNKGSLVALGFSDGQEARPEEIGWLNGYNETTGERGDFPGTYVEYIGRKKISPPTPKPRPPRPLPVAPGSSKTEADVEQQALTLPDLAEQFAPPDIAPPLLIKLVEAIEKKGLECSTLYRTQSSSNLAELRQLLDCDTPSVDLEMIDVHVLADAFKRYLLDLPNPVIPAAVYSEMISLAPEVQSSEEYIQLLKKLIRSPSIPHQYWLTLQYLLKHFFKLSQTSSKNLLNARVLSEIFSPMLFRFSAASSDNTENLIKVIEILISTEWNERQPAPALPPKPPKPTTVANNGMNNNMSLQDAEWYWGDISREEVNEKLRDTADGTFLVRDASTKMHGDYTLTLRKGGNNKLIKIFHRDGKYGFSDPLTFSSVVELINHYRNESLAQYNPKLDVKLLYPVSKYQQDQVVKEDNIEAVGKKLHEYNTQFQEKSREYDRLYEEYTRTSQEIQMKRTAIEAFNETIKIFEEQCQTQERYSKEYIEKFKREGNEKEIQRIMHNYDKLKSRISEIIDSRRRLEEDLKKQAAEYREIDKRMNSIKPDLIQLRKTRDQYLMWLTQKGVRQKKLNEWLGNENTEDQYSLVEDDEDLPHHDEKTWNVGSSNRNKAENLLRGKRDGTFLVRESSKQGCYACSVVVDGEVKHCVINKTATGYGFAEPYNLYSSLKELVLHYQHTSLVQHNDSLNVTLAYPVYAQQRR

Row | Structure (SMILES) | IC50 (PI3Kα) [nM] | IC50 (PI3Kγ) [nM] | IC50 (mTOR Kinase (FLAG-TOR)) [nM]
1 | CNCCN(C)C(=O)c1ccc(NC(=O)Nc2ccc(-c3nc(N4CCOCC4)c4ccn(CC(F)(F)F)c4n3)cc2)cc1 [Compound 53, N-methyl-N-[2-(methylamino)ethyl]-4-[({4-[4-morpholin-4-yl-7-(2,2,2-trifluoroethyl)-7H-pyrrolo[2,3-d]pyrimidin-2-yl]phenyl}carbamoyl)amino]benzamide] | < 2.1 | 16 | 0.57
2 | CN1CCN(C(=O)c2ccc(NC(=O)Nc3ccc(-c4nc(N5CCOCC5)c5ccn(CC(F)(F)F)c5n4)cc3)cc2)CC1 [Compound 54, 1-{4-[(4-methylpiperazin-1-yl)carbonyl]phenyl}-3-{4-[4-morpholin-4-yl-7-(2,2,2-trifluoroethyl)-7H-pyrrolo[2,3-d]pyrimidin-2-yl]phenyl}urea] | 1.9 | 16 | 1.1
3 | CC1(C)CN(C(=O)c2ccc(NC(=O)Nc3ccc(-c4nc(N5CCOCC5)c5ccn(CC(F)(F)F)c5n4)cc3)cc2)CCN1 [Compound 55, 1-{4-[(3,3-dimethylpiperazin-1-yl)carbonyl]phenyl}-3-{4-[4-morpholin-4-yl-7-(2,2,2-trifluoroethyl)-7H-pyrrolo[2,3-d]pyrimidin-2-yl]phenyl}urea] | < 1.9 | 15 | 0.94
4 | O=C(Nc1ccc(C(=O)NCCN2CCCCC2)cc1)Nc1ccc(-c2nc(N3CCOCC3)c3ccn(CC(F)(F)F)c3n2)cc1 [Compound 56, 4-[({4-[4-morpholin-4-yl-7-(2,2,2-trifluoroethyl)-7H-pyrrolo[2,3-d]pyrimidin-2-yl]phenyl}carbamoyl)amino]-N-(2-piperidin-1-ylethyl)benzamide] | 2.6 | 40 | 0.53
5 | CN(C)CCOc1ccc(NC(=O)Nc2ccc(-c3nc(N4CCOCC4)c4ccn(CC(F)(F)F)c4n3)cc2)cc1 [Compound 58, 1-{4-[2-(dimethylamino)ethoxy]phenyl}-3-{4-[4-morpholin-4-yl-7-(2,2,2-trifluoroethyl)-7H-pyrrolo[2,3-d]pyrimidin-2-yl]phenyl}urea] | 2 | 11 | 4.5
6 | CCn1ccc2c(N3CCOCC3)nc(-c3ccc(NC(=O)Nc4ccc(C(=O)OC)cc4)cc3)nc21 [Compound 59, methyl 4-({[4-(7-ethyl-4-morpholin-4-yl-7H-pyrrolo[2,3-d]pyrimidin-2-yl)phenyl]carbamoyl}amino)benzoate] | 166 | 562 | 4.7
7 | CCn1ccc2c(N3CCOCC3)nc(-c3ccc(NC(=O)Nc4ccc(C(=O)O)cc4)cc3)nc21 [Compound 60, 4-({[4-(7-ethyl-4-morpholin-4-yl-7H-pyrrolo[2,3-d]pyrimidin-2-yl)phenyl]carbamoyl}amino)benzoic acid] | 14.5 | 120 | 0.86
8 | CCn1ccc2c(N3CCOCC3)nc(-c3ccc(NC(=O)Nc4ccc(C(=O)N(C)CCN(C)C)cc4)cc3)nc21 [Compound 61, N-[2-(dimethylamino)ethyl]-4-({[4-(7-ethyl-4-morpholin-4-yl-7H-pyrrolo[2,3-d]pyrimidin-2-yl)phenyl]carbamoyl}amino)-N-methylbenzamide] | < 1.9 | 20 | 0.43
9 | CCn1ccc2c(N3CCOCC3)nc(-c3ccc(NC(=O)Nc4ccc(C(=O)NCCN(C)C)cc4)cc3)nc21 [Compound 62, N-[2-(dimethylamino)ethyl]-4-({[4-(7-ethyl-4-morpholin-4-yl-7H-pyrrolo[2,3-d]pyrimidin-2-yl)phenyl]carbamoyl}amino)benzamide] | < 2.4 | 25 | 0.56
10 | CCn1ccc2c(N3CCOCC3)nc(-c3ccc(NC(=O)Nc4ccc(C(=O)N5CCN(C)CC5)cc4)cc3)nc21 [Compound 63, 1-[4-(7-ethyl-4-morpholin-4-yl-7H-pyrrolo[2,3-d]pyrimidin-2-yl)phenyl]-3-{4-[(4-methylpiperazin-1-yl)carbonyl]phenyl}urea] | 1.4 | 19 | 1.75
11 | CCn1ccc2c(N3CCOCC3)nc(-c3ccc(NC(=O)Nc4ccc(C(=O)N5C[C@@H](C)N[C@@H](C)C5)cc4)cc3)nc21 [Compound 64, 1-(4-{[(3R,5S)-3,5-dimethylpiperazin-1-yl]carbonyl}phenyl)-3-[4-(7-ethyl-4-morpholin-4-yl-7H-pyrrolo[2,3-d]pyrimidin-2-yl)phenyl]urea] | < 1.7 | 13 | 1.8
12 | CCn1ccc2c(N3CCOCC3)nc(-c3ccc(NC(=O)Nc4ccc(C(=O)N5CCC(N(C)C)CC5)cc4)cc3)nc21 [Compound 65, 1-(4-{[4-(dimethylamino)piperidin-1-yl]carbonyl}phenyl)-3-[4-(7-ethyl-4-morpholin-4-yl-7H-pyrrolo[2,3-d]pyrimidin-2-yl)phenyl]urea] | 1.1 | 20 | 1.09
13 | CCn1ccc2c(N3CCOCC3)nc(-c3ccc(NC(=O)Nc4ccc(C(=O)N5CCOCC5)cc4)cc3)nc21 [Compound 66, 1-[4-(7-ethyl-4-morpholin-4-yl-7H-pyrrolo[2,3-d]pyrimidin-2-yl)phenyl]-3-[4-(morpholin-4-ylcarbonyl)phenyl]urea] | 3.5 | 30 | 2.4
14 | CCn1ccc2c(N3CCOCC3)nc(-c3ccc(NC(=O)Nc4ccc(C(=O)N5CCNCC5)cc4)cc3)nc21 [Compound 67, 1-[4-(7-ethyl-4-morpholin-4-yl-7H-pyrrolo[2,3-d]pyrimidin-2-yl)phenyl]-3-[4-(piperazin-1-ylcarbonyl)phenyl]urea] | < 1.8 | 8 | 0.99
15 | CCn1ccc2c(N3CCOCC3)nc(-c3ccc(NC(=O)Nc4ccc(C(=O)NCCN5CCCCC5)cc4)cc3)nc21 [Compound 68, 4-({[4-(7-ethyl-4-morpholin-4-yl-7H-pyrrolo[2,3-d]pyrimidin-2-yl)phenyl]carbamoyl}amino)-N-(2-piperidin-1-ylethyl)benzamide] | 4 | 61 | 0.91
16 | CCn1ccc2c(N3CCOCC3)nc(-c3ccc(NC(=O)Nc4ccc(C(=O)N5CCC(N6CCCC6)CC5)cc4)cc3)nc21 [Compound 69, 1-[4-(7-ethyl-4-morpholin-4-yl-7H-pyrrolo[2,3-d]pyrimidin-2-yl)phenyl]-3-{4-[(4-pyrrolidin-1-ylpiperidin-1-yl)carbonyl]phenyl}urea] | 2.1 | 24 | 0.8
17 | CCN1CCN(C(=O)c2ccc(NC(=O)Nc3ccc(-c4nc(N5CCOCC5)c5ccn(CC)c5n4)cc3)cc2)CC1 [Compound 70, 1-[4-(7-ethyl-4-morpholin-4-yl-7H-pyrrolo[2,3-d]pyrimidin-2-yl)phenyl]-3-{4-[(4-ethylpiperazin-1-yl)carbonyl]phenyl}urea] | 2.5 | 21 | 1.5
18 | CCn1ccc2c(N3CCOCC3)nc(-c3ccc(NC(=O)Nc4ccc(C(=O)N5CCSCC5)cc4)cc3)nc21 [Compound 71, 1-[4-(7-ethyl-4-morpholin-4-yl-7H-pyrrolo[2,3-d]pyrimidin-2-yl)phenyl]-3-[4-(thiomorpholin-4-ylcarbonyl)phenyl]urea] | 3.5 | 39 | 4.2
19 | CCn1ccc2c(N3CCOCC3)nc(-c3ccc(NC(=O)Nc4ccc(C(=O)N5CCC(N6CCCCC6)CC5)cc4)cc3)nc21 [Compound 72, 1-[4-(1,4′-bipiperidin-1′-ylcarbonyl)phenyl]-3-[4-(7-ethyl-4-morpholin-4-yl-7H-pyrrolo[2,3-d]pyrimidin-2-yl)phenyl]urea] | 3.5 | 28 | 1.4
20 | CCn1ccc2c(N3CCOCC3)nc(-c3ccc(NC(=O)Nc4ccc(C(=O)N5CCN(C6CCCC6)CC5)cc4)cc3)nc21 [Compound 73, 1-{4-[(4-cyclopentylpiperazin-1-yl)carbonyl]phenyl}-3-[4-(7-ethyl-4-morpholin-4-yl-7H-pyrrolo[2,3-d]pyrimidin-2-yl)phenyl]urea] | 6.5 | 35 | 3.35
21 | CCn1ccc2c(N3CCOCC3)nc(-c3ccc(NC(=O)Nc4ccc(C(=O)NCCCN(C)C)cc4)cc3)nc21 [Compound 74, N-[3-(dimethylamino)propyl]-4-({[4-(7-ethyl-4-morpholin-4-yl-7H-pyrrolo[2,3-d]pyrimidin-2-yl)phenyl]carbamoyl}amino)benzamide] | 1.9 | 32 | 1.2
22 | CCn1ccc2c(N3CCOCC3)nc(-c3ccc(NC(=O)Nc4ccc(C(=O)N5CCN(c6ccccn6)CC5)cc4)cc3)nc21 [Compound 75, 1-[4-(7-ethyl-4-morpholin-4-yl-7H-pyrrolo[2,3-d]pyrimidin-2-yl)phenyl]-3-{4-[(4-pyridin-2-ylpiperazin-1-yl)carbonyl]phenyl}urea] | 8 | 36 | 5.65
